The text below walks through data of publication PMC5333395, “Assessing histone demethylase inhibitors in cells: lessons learned” (Epigenetics & Chromatin, 2017).

For one data set, the target named is T1, KDM3A (Homo sapiens, UniProt Q9Y4C1).
T1 sequence (Q9Y4C1 1-1321): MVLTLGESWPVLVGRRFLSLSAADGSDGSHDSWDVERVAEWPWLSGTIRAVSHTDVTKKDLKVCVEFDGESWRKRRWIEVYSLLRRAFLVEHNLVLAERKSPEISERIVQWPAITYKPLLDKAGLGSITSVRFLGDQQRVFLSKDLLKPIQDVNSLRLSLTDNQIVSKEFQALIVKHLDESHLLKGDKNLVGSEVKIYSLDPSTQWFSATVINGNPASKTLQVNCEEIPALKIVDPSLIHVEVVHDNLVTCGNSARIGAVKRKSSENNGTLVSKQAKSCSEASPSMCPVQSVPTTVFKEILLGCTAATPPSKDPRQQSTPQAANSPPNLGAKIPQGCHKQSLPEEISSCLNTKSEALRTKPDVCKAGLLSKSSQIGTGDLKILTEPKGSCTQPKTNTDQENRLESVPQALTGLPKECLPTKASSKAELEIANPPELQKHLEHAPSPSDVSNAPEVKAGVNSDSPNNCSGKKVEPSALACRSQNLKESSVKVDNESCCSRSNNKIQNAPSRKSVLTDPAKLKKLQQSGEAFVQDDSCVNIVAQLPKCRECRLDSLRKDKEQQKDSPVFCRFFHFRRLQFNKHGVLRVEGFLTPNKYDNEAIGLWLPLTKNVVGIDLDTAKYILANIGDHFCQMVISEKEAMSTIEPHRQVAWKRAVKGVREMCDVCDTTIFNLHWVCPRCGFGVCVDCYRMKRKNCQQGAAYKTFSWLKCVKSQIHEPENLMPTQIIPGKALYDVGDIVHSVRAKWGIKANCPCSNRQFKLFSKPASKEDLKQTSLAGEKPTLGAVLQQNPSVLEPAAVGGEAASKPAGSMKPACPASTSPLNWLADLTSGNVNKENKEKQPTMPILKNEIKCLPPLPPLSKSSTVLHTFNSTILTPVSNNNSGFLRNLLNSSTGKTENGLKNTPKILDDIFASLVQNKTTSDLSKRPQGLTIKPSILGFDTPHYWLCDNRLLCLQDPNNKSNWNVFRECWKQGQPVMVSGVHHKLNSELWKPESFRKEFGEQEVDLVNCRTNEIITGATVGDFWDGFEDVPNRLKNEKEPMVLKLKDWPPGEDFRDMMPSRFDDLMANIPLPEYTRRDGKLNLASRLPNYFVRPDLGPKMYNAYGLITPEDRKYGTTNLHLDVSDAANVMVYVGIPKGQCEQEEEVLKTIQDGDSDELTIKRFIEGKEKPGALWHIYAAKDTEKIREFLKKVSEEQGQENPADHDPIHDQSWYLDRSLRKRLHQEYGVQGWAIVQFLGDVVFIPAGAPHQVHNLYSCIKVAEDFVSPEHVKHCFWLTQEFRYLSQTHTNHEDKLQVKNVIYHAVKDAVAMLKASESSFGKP
Nature of the data set: AlphaScreen in vitro demethylase assay. Type of data set: biochemical. The following applies: IC50 ± SD (number of replicates). The method, then: (§1) IC50 values were determined as previously described. The following amendments were made to the protocol for carrying out 2-OG competition assays.
Background: Bead proximity is the source of the signal in Alpha formats.

The next data set deals with T2, KDM4A (Homo sapiens, UniProt O75164).
T2 sequence (O75164 1-1064): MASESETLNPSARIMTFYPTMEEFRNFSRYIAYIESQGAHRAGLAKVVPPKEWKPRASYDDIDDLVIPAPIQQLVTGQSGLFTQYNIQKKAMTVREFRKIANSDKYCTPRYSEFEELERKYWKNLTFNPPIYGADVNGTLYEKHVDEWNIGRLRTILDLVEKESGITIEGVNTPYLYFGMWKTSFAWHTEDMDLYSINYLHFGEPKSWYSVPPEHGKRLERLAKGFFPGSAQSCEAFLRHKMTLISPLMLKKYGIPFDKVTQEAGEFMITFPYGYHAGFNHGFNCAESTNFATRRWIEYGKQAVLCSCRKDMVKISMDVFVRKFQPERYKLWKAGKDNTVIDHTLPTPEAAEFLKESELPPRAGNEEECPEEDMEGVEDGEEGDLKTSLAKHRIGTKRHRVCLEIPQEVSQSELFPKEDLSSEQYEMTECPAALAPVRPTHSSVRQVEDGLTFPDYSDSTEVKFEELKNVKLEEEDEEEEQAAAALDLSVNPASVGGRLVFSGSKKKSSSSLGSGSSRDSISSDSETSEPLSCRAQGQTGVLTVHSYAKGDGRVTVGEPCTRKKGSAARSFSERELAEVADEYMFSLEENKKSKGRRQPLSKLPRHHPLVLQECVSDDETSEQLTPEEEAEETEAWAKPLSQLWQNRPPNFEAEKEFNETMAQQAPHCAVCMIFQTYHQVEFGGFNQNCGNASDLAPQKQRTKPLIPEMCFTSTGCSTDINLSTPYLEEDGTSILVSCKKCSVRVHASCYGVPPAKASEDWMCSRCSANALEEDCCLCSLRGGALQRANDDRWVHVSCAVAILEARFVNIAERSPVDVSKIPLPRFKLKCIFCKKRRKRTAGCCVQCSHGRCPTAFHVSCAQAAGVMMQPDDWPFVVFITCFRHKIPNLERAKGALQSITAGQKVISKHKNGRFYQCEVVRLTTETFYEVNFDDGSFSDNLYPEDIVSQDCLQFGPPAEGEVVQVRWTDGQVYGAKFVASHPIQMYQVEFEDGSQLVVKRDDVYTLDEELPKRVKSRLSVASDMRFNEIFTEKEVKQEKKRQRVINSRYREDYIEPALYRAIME
Nature of the data set: AlphaScreen in vitro demethylase assay. Type of data set: biochemical. The following applies: IC50 ± SD (number of replicates). How it is done: as §1

Data set [1] has as its system Caco-2 human colon carcinoma cell line. Description: Caco-2 permeability. Type of data set: in vitro ADME. The following applies: P app. How it is done:
P app (apparent permeability) was determined in the Caco-2 human colon carcinoma cell line essentially as described in [11].
On the technique in general: Caco-2 cells form a polarised layer with tight junctions and transporters.

The test system of another data set is HeLa cells. Description: Cell number in the high-content screen (DAPI staining) as measure of toxicity. The note with it: concentrations used in the IF assays.

From the text for HeLa cells: Immunofluorescence images of 20 fields (if not indicated otherwise) were captured through a 20× objective on a PerkinElmer Operetta or the GE IN Cell 6000 using the appropriate filters and light sources for exciting DAPI, Alexafluor 488, and Alexafluor 568 or Alexafluor 647. […] From the DAPI channel, a binary mask was created to exclude individual nuclei smaller than 100 µm^2 and those overlapping the edge of the field.

Regarding CPI-455, the IC50 on KDM3A was over 100 µM; against KDM4A it was 31 µM. The “Caco-2 (A to B flux)” value in data set [1] is 5.21e-06 cm/s. Also, the “Toxicity as measured by cell count (number of cells, DAPI staining)” value (from here on “Toxicity as measured by cell count”) in the data set on HeLa cells is “No reduction in cell numbers was observed”.

In the case of `CCN(CCN(C)C)C(=O)CNCc1cc(C(=O)O)ccn1` [KDOAM-20], the 50% inhibitory concentration (IC50) on KDM3A was found to be 1.2 ± 0.91 µM; against KDM4A, 0.67 ± 0.23 µM. In the data set on HeLa cells, the “Toxicity as measured by cell count” value is “no toxicity”.

On to `CCOC(=O)c1ccnc(CNCC(=O)N(CC)CCN(C)C)c1` [KDOAM-21], for which the values for the IC50 against KDM3A and against KDM4A were 2.6 ± 1.3 µM and 11 ± 4.5 µM, respectively. Also, the “Caco-2 (A to B flux)” value in data set [1] was determined as 5.32e-06 cm/s. The “Toxicity as measured by cell count” value with HeLa cells is “no toxicity”.

For `O=c1[nH]cnc2c(-n3cc(CCN4CCC(c5cccc(Cl)c5)CC4)cn3)cccc12` [CCT366293, 8-(4-(2-(4-(3-Chlorophenyl)piperidin-1-yl)ethyl)-1H-pyrazol-1-yl)quinazolin-4(3H)-one], the 50% inhibitory concentration (IC50) on KDM4A was over 10 µM. In the data set on HeLa cells, the “Toxicity as measured by cell count” value is recorded as “No cytotoxicity was observed”.

With `Clc1ccc(N/N=C(\c2ccccc2)c2ccccn2)nc1` [JIB-04 E], in the data set on HeLa cells, the “Toxicity as measured by cell count” value is on record as “only observed cell toxicity at high concentrations”.

As usually defined, the IC50 is the concentration that gives 50% inhibition.
